Results: patent US20240252506A1 (Hoffmann-La Roche Inc., priority 2021, published 2024)
≈ marks a conversion by molar mass, not a printed value. Where two headings read alike, the source gives them in different places.

Test system: Escherichia coli ATCC 25922
Assay: Minimal Inhibitory Concentration (MIC) determination, broth microdilution (CLSI M07-A10)
Type: cell-based
Conditions: for MIC: Escherichia coli; for Escherichia coli growth inhibition MIC: strain Escherichia coli ATCC 25922, 18-24 hours at 35±2° C.
Experimental: Minimal Inhibitory Concentration (MIC) Determination:
The MIC of antibacterial compounds against multiple species and strains was determined using the broth microdilution method according to M07-A10 Clinical and Laboratory Standards Institute (CLSI) guidelines, using the appropriate broth medium. In short, the compound plates were prepared by dispensing 100 μL of each stock solution in the first well of a 96 well microtiter plate (MTP) at a concentration 100-fold higher than the final concentration desired in broth. Eleven serial 2-fold dilutions of the highest concentration were made in DMSO for new compounds and in water (or appropriate solution) for reference compounds [2]. 1 μL of each well was transferred in a new MTP, which served as the test plate by subsequent inoculation. This bacterial suspension was prepared from strains that were first sub-cultured on agar plates and incubated for 18-24 hours as appropriate. Following incubation, the inoculum was prepared from isolated colonies and adjusted to 0.5 McFarland turbidity standard (1 to 2×10^8 Colony Forming Units (CFU)/mL) in 0.9% saline. The bacterial suspension was then diluted 1:200 in appropriate sterile medium and within 15 minutes 100 μL/well were dispensed. Negative controls (lack of bacterial cells) and growth control wells (lack of compound) were included in all plates. MTPs were incubated for 18-24 hours at 35±2° C. in ambient air. The MIC value of each compound, expressed as μg/mL, was determined as the lowest concentration required for complete growth inhibition (no visible growth). • [1] CLSI (2015) Methods for dilution antimicrobial susceptibility tests for bacteria that grow aerobically; Approved Standard, Tenth Edition. CLSI Document M7-A10 (ISBN 1-56238-987-4). Wayne, PA: Clinical and Laboratory Standards Institute, 19087, USA. • [2] CLSI (2017) Performance Standards for Antimicrobial Susceptibility Testing; Twenty-Fifth Informational Supplement. CLSI Document M100-S27, CLSI, Wayne, Pennsylvania 19087, USA.
Table 1 provides the Minimal Inhibitory Concentrations (MIC) in micrograms per millilitre of the compounds of present invention obtained against the strain Escherichia coli ATCC 25922.

[1] = ATCC25922, strain Escherichia coli ATCC 25922, 18-24 hours at 35±2° C., lowest concentration for complete growth inhibition (no visible growth), read-out: Escherichia coli growth inhibition MIC
[2] = lowest concentration for complete growth inhibition (no visible growth)

Structure (SMILES)	MIC [1] [µg/mL]	also measured
O=C1COc2ncc(N3CC4(CCN(CC5Cc6cc7nn(C8CNC8)nc7c(F)c6C5)CC4)OC3=O)nc2N1 (single isomer, unassigned) [Example 109, 6-[2-oxo-8-[[2-(azetidin-3-yl)-8-fluoro-6,7-dihydro-5H-cyclopenta[f]benzotriazol-6-yl]methyl]-1-oxa-3,8-diazaspiro[4.5]decan-3-yl]-4H-pyrazino[2,3-b][1,4]oxazin-3-one]	0.5 (≈ 0.91 µM)	
O=C1COc2ncc(N3CC4(CCN(CC5Cc6cc7nn(C8CNC8)nc7c(F)c6C5)CC4)OC3=O)nc2N1 (single isomer, unassigned) [Example 110, 6-[2-oxo-8-[[2-(azetidin-3-yl)-8-fluoro-6,7-dihydro-5H-cyclopenta[f]benzotriazol-6-yl]methyl]-1-oxa-3,8-diazaspiro[4.5]decan-3-yl]-4H-pyrazino[2,3-b][1,4]oxazin-3-one]		Escherichia coli growth inhibition MIC [2]: 1 µg/mL
O=C1COc2ccc(N3CC4(CCN(CC5Cc6cc7nc(C8CNC8)oc7c(F)c6C5)CC4)OC3=O)nc2N1 (single isomer, unassigned) [Example 112, 6-[8-[[2-(azetidin-3-yl)-8-fluoro-6,7-dihydro-5H-cyclopenta[f][1,3]benzoxazol-6-yl]methyl]-2-oxo-1-oxa-3,8-diazaspiro[4.5]decan-3-yl]-4H-pyrido[3,2-b][1,4]oxazin-3-one]		Escherichia coli growth inhibition MIC [2]: 0.5 µg/mL
O=C1COc2ncc(N3CC4(CCN(CC5Cc6cc7nnn(C8CNC8)c7c(F)c6C5)CC4)OC3=O)nc2N1 (single isomer, unassigned) [Example 113, formic acid]		MIC (ATCC25922, read-out: Escherichia coli growth inhibition MIC, strain Escherichia coli ATCC 25922, 18-24 hours at 35±2° C., lowest concentration for complete growth inhibition (no visible growth)): 0.125 µg/mL (≈ 0.227 µM)
O=C1COc2ncc(N3CC4(CCN(CC5Cc6cc7nnn(C8CNC8)c7c(F)c6C5)CC4)OC3=O)nc2N1.O=CO (single isomer, unassigned) [Example 114]	0.25	
O=C1COc2ncc(N3CC4(CCN(CC5Cc6cc7c(nnn7C7CNC7)c(F)c6C5)CC4)OC3=O)nc2N1.O=CO (single isomer, unassigned) [Example 115, 6-[2-oxo-8-[[3-(azetidin-3-yl)-8-fluoro-6,7-dihydro-5H-cyclopenta[f]benzotriazol-6-yl]methyl]-1-oxa-3,8-diazaspiro[4.5]decan-3-yl]-4H-pyrazino[2,3-b][1,4]oxazin-3-one; formic acid]	0.5	
O=C1COc2ncc(N3CC4(CCN(CC5Cc6cc7c(nnn7C7CNC7)c(F)c6C5)CC4)OC3=O)nc2N1.O=CO (single isomer, unassigned) [Example 116, 6-[2-oxo-8-[[3-(azetidin-3-yl)-8-fluoro-6,7-dihydro-5H-cyclopenta[f]benzotriazol-6-yl]methyl]-1-oxa-3,8-diazaspiro[4.5]decan-3-yl]-4H-pyrazino[2,3-b][1,4]oxazin-3-one; formic acid]		Escherichia coli growth inhibition MIC (lowest concentration for complete growth inhibition (no visible growth), formic acid): 0.25 µg/mL
CNCCn1nnc2c(F)c3c(c(F)c21)CC(CN1CCC2(CC1)CN(c1cnc4c(n1)NC(=O)CO4)C(=O)O2)C3 (single isomer, unassigned) [Example 118, 6-[2-oxo-8-[[4,8-difluoro-1-[2-(methylamino)ethyl]-6,7-dihydro-5H-cyclopenta[f]benzotriazol-6-yl]methyl]-1-oxa-3,8-diazaspiro[4.5]decan-3-yl]-4H-pyrazino[2,3-b][1,4]oxazin-3-one]	0.125 (≈ 0.219 µM)	

Continued, in another order:

MIC [1] [µg/mL]	Structure (SMILES)	also measured
0.25 (≈ 0.455 µM)	O=C1COc2ncc(N3CC4(CCN(CC5Cc6cc7nc([C@H]8CCN8)oc7c(F)c6C5)CC4)OC3=O)nc2N1 (single isomer, unassigned) [Example 108]	
0.5 (≈ 0.911 µM)	O=C1COc2ccc(N3CC4(CCN(CC5Cc6cc7nc(C8CNC8)oc7c(F)c6C5)CC4)OC3=O)nc2N1 (single isomer, unassigned) [Example 111, 6-[8-[[2-(azetidin-3-yl)-8-fluoro-6,7-dihydro-5H-cyclopenta[f][1,3]benzoxazol-6-yl]methyl]-2-oxo-1-oxa-3,8-diazaspiro[4.5]decan-3-yl]-4H-pyrido[3,2-b][1,4]oxazin-3-one]	
